Patent US20190111168A1, “PHOTOSENSITIZER DISPERSION, AND USE THEREOF” (Universität Regensburg, priority 2016, published 2019)

Key:
[1] = time-resolved singlet oxygen luminescence measurements in water and microemulsions; type: physicochemical; parameters: Integral: unit not given here; settings: for production of singlet oxygen following irradiation with electromagnetic radiation: 5 μM in water or microemulsions; for formation of singlet oxygen in the microemulsions used, times higher than in water: microemulsions versus water; for Integral: singlet oxygen luminescence; for Decay period / Formation time / Relative yield with respect to H2O: singlet oxygen; for Relative yield with respect to H2O: ratio of the integrals
Procedure: The formation of singlet oxygen following irradiation of a photosensitizer-containing microemulsion was determined using time-resolved singlet oxygen luminescence measurements.
For the relevant measurements, 5 μM of the respective photosensitizers used were dissolved in water or in the emulsions E1 to E4.
The time-resolved singlet oxygen luminescence measurements were carried out in accordance with the methods described in S. Y. Egorov et al., 1999.
A tuneable laser system was used to produce the singlet oxygen (model: NT242-SH/SFG, serial number: PGD048) from EKSPLA (Vilnius, […]). A portion of the monochromatic laser beam produced was directed onto a photodiode which acted as a trigger signal for the time-correlated single photon measurement.
The other part of the laser beam was directed onto a 1 cm thick quartz cell (SUPRASIL, Type 101-QS, Hellma GmbH & Co. KG, Mühlheim, DE), in which the solution to be tested had been disposed.
The formation of singlet oxygen was detected by direct detection of the time- and spectrally-resolved singlet oxygen luminescence.
Singlet oxygen luminescence was carried out by means of a nitrogen-cooled photomultiplier (model R5509-42, Hamamatsu Photonics, Hamamatsu, Japan) and a multiscaler (7886S, FAST Corn Tec GmbH, Oberhaching, Germany).
The singlet oxygen luminescence was detected at a wavelength in the range 1200 nm to 1400 nm using interference filters which were disposed in front of the photomultiplier.
The quantum yield was determined in accordance with the method described in Baier J. et al. (“Singlet Oxygen Generation by UVA Light Exposure of Endogenous Photosensitizers”, Biophys. J. 91(4), 2006, pages 1452 to 1459; doi. 10.1529/biophysj.106.082388).
The relative yield of singlet oxygen for each photosensitizer with respect to the quantity of singlet oxygen formed in water was calculated from the ratio of the integrals.

[2] = system: Escherichia coli (E. coli; ATCC Number: 25922); experiment: phototoxicity measurements (MTT test; colony forming units by Miles and Misra); type: cell-based; settings: for effectiveness against E. coli in a microemulsion compared with water: microemulsion versus water; for reduction in the quantity of E. coli: irradiated
Description: (§1) In order to investigate the phototoxicity of the microemulsions in accordance with the invention, a MTT test was used. Assaying cell vitality using a MTT test is based on the reduction of the yellow, water-soluble dye 3-(4,5-dimethylthiazol-2-yl)-2,5-diphenyltetrazolium bromide (MIT, Sigma-Aldrich Chemie GmbH, Munich, DE) into a blue-violet […] (formazan) which is insoluble in water. MTT is a dye which can pass through membranes, which is metabolized by mitochondrial dehydrogenases in living cells, which in the end leads to the formation of formazan crystals.
(§2) Formazan crystals can no longer pass through the membranes and accumulate in proliferating undamaged cells. After cell lysis and dissolving the crystals, the dye is then quantified by colorimetric measurement at 550 nm in a multi-well spectrophotometer (ELISA reader). The quantity of formazan formed is determined as the optical density (OD). The measured quantity of formazan is directly proportional to the number of proliferating cells, so that this test is suitable for the measurement of the phototoxicity of the microemulsions used. The measured OD can be assigned a cell count by means of a previously determined calibration curve.
(§3) The concentration of the respective photosensitizers TMPyP, SA-PN-01a, SA-PN-02a, SA-PN-24d, FL-AS-H-1a or FL-AS-H-2 in the microemulsions E1 to E4 was 0 μM, 10 μM, 25 μM, 50 μM, 100 μM, 250 μM and 500 μM.
(§4) Furthermore, the respective microemulsions E1 to E4 without photosensitizer were used as a control.
(§5) The phototoxicity measurements were carried out on Escherichia coli (E. coli; ATCC Number: 25922) and Staphylococcus aureus (S. aureus; ATCC Number: 25923), as described by Mosmann (1983). (Mosmann T.: Rapid colorimetric assay for cellular growth and survival: application to proliferation and cytotoxicity assays: J. Immunol. methods. 1983 (65); pages 55-63).
(§6) 25 μL of a suspension of the bacteria used were grown overnight in Müller-Hinton liquid medium (Merck KGaA, Darmstadt, Germany) with an optical density of 0.6 at 600 nm were incubated with 25 μL of the test solution at room temperature for 10 seconds in darkness in a 96-well microtitre plate (Cellstar, Greiner Bio-One, Frickenhausen, Germany).
(§7) Next, the microtitre plate was irradiated for 40 s. For irradiation, the light source Blue V from Waldmann (Villingen-Schwenningen, Germany) was used, which emits light at 380 to 480 nm (emission maximum at approximately 420 nm). The applied power was 20 mW/cm^2.
(§8) For each experiment, three controls were carried out at the same time in order to exclude side effects of the irradiation/photosensitizer (PS) on survival of the bacteria: (i) no PS, only light (=light control), (ii) no light, only PS (=dark control), and (iii) neither light nor PS (=reference control).
(§9) After irradiation had been completed, 75 μL of a 25% by weight SDS solution was added to each well of the microtitre plate and the bacterial cells were lysed overnight at 37° C. in an incubator.
(§10) Finally, the optical density (OD) was determined with the aid of a microtitre plate photometer (model EAR 400 AT, SLT Laborinstruments Austria, Salzburg, AT).
(§11) After lysis of the cells and dissolution of the crystals, the dye could then be quantified in a multi-well spectrophotometer (ELISA-Reader) by colorimetric measurement at 550 nm.
(§12) The determination of the colony forming units was carried out in accordance with the method published by Miles and Misra (Miles, AA; Misra, SS, Irwin, JO (1938 November). “The estimation of the bactericidal power of the blood” The Journal of hygiene 38 (6): 732-49). In this regard, serial dilutions from 10^−2 to 10^−9 of the corresponding bacterial suspension were produced. In each case, 3×20 μL of the corresponding bacterial dilutions were then dropped onto Müller-Hinton plates and incubated at 37° C. for 24 h. Next, the number of surviving colony forming units (CFU) was determined. All of the experiments were carried out three times.

[3] = system: Staphylococcus aureus (S. aureus; ATCC Number: 25923); experiment: as above; type: cell-based; settings: for effectiveness against S. aureus in a microemulsion compared with water: microemulsion versus water; for reduction in the quantity of S. aureus: irradiated
Description: as §1, §2, §3, §4, §5, §6, §7, §8, §9, §10, §11, §12

[4] = time-resolved singlet oxygen luminescence measurements in gels; type: physicochemical; settings: final concentration 10 μM
[5] = photosensitizer 5 μM in microemulsion E1
[6] = photosensitizer 5 μM in microemulsion E2
[7] = photosensitizer 5 μM in microemulsion E1 (DMS, SDS/1-pentanol (1:2); water)
[8] = photosensitizer 5 μM in microemulsion E2 (DMS, SDS/1,2-pentanediol (1:2); water)
[9] = 10 μM in one of the microemulsions E1 to E4
[10] = in one of the microemulsions E1 to E4, from a concentration of 25 μM
[11] = 10 μM to 100 μM, both in water and in microemulsions E1 to E4, Blue V 40 s, 20 mW/cm^2
[12] = more than 100 μM in water (concentrated aqueous solutions)
[13] = more than 100 μM to 500 μM in microemulsions

| Compound | production of singlet oxygen following irradiation with electromagnetic radiation [1] | formation of singlet oxygen in the microemulsions used, times higher than in water [1] [times] | Integral ([1]; photosensitizer 5 μM in H2O) | Integral [1, 5] | Integral [1, 6] | Decay period ([1]; photosensitizer 5 μM in H2O) [μs] | Formation time ([1]; photosensitizer 5 μM in H2O) [μs] | Decay period [1, 5] [μs] | Formation time [1, 7] [μs] | Decay period [1, 6] [μs] | Formation time [1, 8] [μs] | Relative yield with respect to H2O ([1]; 5 μM in microemulsion E1) | Relative yield with respect to H2O ([1]; 5 μM in microemulsion E2) | reduction in the quantity of E. coli following irradiation [2, 9] | reduction in the quantity of S. aureus following irradiation [3, 9] | effectiveness against E. coli in a microemulsion compared with water [2] | effectiveness against S. aureus in a microemulsion compared with water [3] | other results |
| --- | --- | --- | --- | --- | --- | --- | --- | --- | --- | --- | --- | --- | --- | --- | --- | --- | --- | --- |
| Cc1cc2nc3c(=O)[nH]c(=O)nc-3n(CCN)c2cc1C.Cl [FL-AS-H-1a, 10-(2-aminoeth-1-yl)-7,8-dimethyl-[3H,10H]-benzo[g]pteridine-2,4-dione hydrochloride] | produced singlet oxygen | 5 | 366 | 1752 | 1695 | 3.6 | 3.6 | 8.6 | 3.0 | 6.7 | 4.0 | 4.79 | 4.63 | approximately 2 log10 units | approximately 2 log10 units |  |  |  |
| O=C1C(C[n+]2ccccc2)=Cc2cccc3cccc1c23.[Cl-] [SA-PN-01a] | produced singlet oxygen | 7 | 571 | 4413 | 3933 | 3.2 | 2.5 | 9.2 | 1.0 | 7.4 | 1.6 | 7.73 | 6.89 | 3 log10 units | 3 log10 units | more effective | more effective | reduction in the quantity of E. coli following irradiation [2, 10]: more than 6 log10 units; reduction in the quantity of S. aureus following irradiation [3, 10]: more than 6 log10 units |
| C[N+](C)(C)CC1=Cc2cccc3cccc(c23)C1=O.[Cl-] [SA-PN-02a, N,N,N-trimethyl-1-(1-oxo-1H-phenalen-2-yl)methanaminium chloride] |  |  |  |  |  |  |  |  |  |  |  |  |  |  |  | more effective | more effective |  |
| CN(CC1=Cc2cccc3cccc(c23)C1=O)C(=N)N.Cl [SA-PN-24d, 1-((1-oxo-1H-phenalen-2-yl)methyl)-1-methylguanidinium chloride] |  |  |  |  |  |  |  |  |  |  |  |  |  |  |  | more effective | more effective |  |
| C[n+]1ccc(-c2c3nc(c(-c4cc[n+](C)cc4)c4ccc([nH]4)c(-c4cc[n+](C)cc4)c4nc(c(-c5cc[n+](C)cc5)c5ccc2[nH]5)C=C4)C=C3)cc1 [TMPyP, 5,10,15,20-tetrakis(1-methyl-4-pyridyl)-porphyrin-tetra-(p-toluenesulphonate), reference compound] | produced singlet oxygen |  | 985 | 2874 | 1955 | 3.8 | 1.9 | 8.9 | 1.7 | 7.2 | 2.3 | 2.92 | 1.98 |  |  |  |  | destruction of E. coli by the singlet oxygen formed by the irradiation [2, 11]: destroyed; reduction in the quantity of E. coli [2, 12]: 2 log units; reduction in the quantity of E. coli [2, 13]: 5 log10 units; destruction of S. aureus by the singlet oxygen formed by the irradiation [3, 11]: destroyed; reduction in the quantity of S. aureus [3, 12]: 2 log units; reduction in the quantity of S. aureus [3, 13]: 5 log10 units; decay time for the singlet oxygen signal (tD) ([4]; in gel G3): 7.4 μs; rise time for the singlet oxygen signal (tR) ([4]; in gel G3): 2.7 μs; formation of singlet oxygen following irradiation ([4]; in gels G1, G2 and G3): could be detected |
